Data taken from US6001810A, “Methods for treating retroviral infection” (Eli Lilly and Company, priority 1990, dated 1999).
Converted amounts (≈) assume the structure as drawn. Non-standard residues stand in square brackets, D forms with d. Residues, ends and D or L forms follow the SMILES beside them. *: point of attachment. Phe(4-NH2) = Nc1ccc(C[C@H](N)C(=O)O)cc1; Sta = CC(C)C[C@H](N)[C@@H](O)CC(=O)O; Isovaleryl = CC(C)CC(=O)*

Assays:
HIV-1 protease = molecular target: T1, HIV-1 protease (Human immunodeficiency virus type 1 group M subtype B, UniProt P04585); experiment: HIV-1 protease inhibition assay (gag precursor maturation, Western blot); type: biochemical
T1 construct: a gene encoding the mature HIV-1 protease of 99 amino acids; last 58 codons of bovine growth hormone, fused behind the first 144 amino acids of reverse transcriptase in the expressed precursor (C); made in house; host or cells: Escherichia coli K12 L507/pHP10D (NRRL B-18560), crude lysate
Description: A 100 μl control reaction was established containing 10 to 20 μl of crude protease, about 2 μl of the gag supernatant and final concentrations of 50 mM MES Buffer (pH 5.5), 1 mM DTT and 25 mM NaCl. Inhibition assays were performed by pre-incubating the crude protease with an inhibitory compound at room temperature for about 30 minutes before adding the gag supernatant to the reaction. Both the control and the experimental reactions were incubated from three to sixteen hours at 37° C. The reactions were then electrophoresed and blotted onto nitrocellulose filters. Monoclonal antibodies which recognize epitopes on p24 and p17 viral proteins were contacted with the filter then visualized using standard biotinylation or radionuclear techniques. Compounds which prevented the maturation of the gag polypeptide into mature viral proteins p24 and p17 were then ranked according to their HIV-1 protease inhibitory activity.
About 10 to 20 μl of the crude protease lysate was mixed with about 2 μl of the gag supernatant. The mixture was then brought to a total volume of 100 μl by the addition of distilled water, MES buffer (2-[N-Morpholino]ethanesulfonic acid) (pH 5.5 to a total concentration of 50 mM), DTT (dithiolthreitol) (to a total concentration of 1 mM) and NaCl (to a total concentration of 25 mM). This reaction mixture was mixed gently then incubated from 3 hours to overnight at 37° C.
Next, about 25 μl of the reaction was mixed with loading buffer and subjected to polyacrylamide gel electrophoresis on a 12.5% Laemmli gel under reducing conditions. The proteins were transferred onto a nitrocellulose filter using standard "Western Blot" electrophoresis at 500 mAmps for 35 minutes at room temperature. The filter was air-dried, then non-specific immunoreaction was blocked by washing the filter for 30 minutes at 4° C. in a solution of 3% non-fat dry milk powder in phosphate buffered saline (PBS).
Monoclonal antibodies against p17 and/or p24 (available from DuPont, Wilmington, Del.) were added to about 40 ml of the 3% milk/PBS solution to a final concentration of 2 μg/ml. […] The filter then was removed and washed 5 times with PBS, then the maturation of the gag gene was determined by reaction with I^125 -labeled protein A or by reaction with biotinylated anti-mouse IgG antibodies (Vecta Stain®). […]
Following the procedure, it is simple to determine the activity of the HIV-1 protease encoded on plasmid pHP10D and produced in E. coli cells. When the protease is fully active, the gag protein, encoded by plasmid pHGAG and produced in E. coli, is cleaved from the precursor gag form into mature p24 and p17 proteins, which are readily measured by their presence relative to the precursor protein. […]

MT-2 cells = type: cell-based
Description: (§1) Quantitative evaluation of the viral inhibition were performed on the T-cell lymphoblastoid cell lines MT-2 (Harada et al., 1985, Science 229:563-566) and CEM (Nara and Fischinger, 1988, Nature 332:469-470). The cells were infected with the HTLV-IIIB strain of HIV-1 from the supernatant fluid of infected human T-lymphocyte cell line H9 (Popovic, M. et al., 1984, Science 224:497-500). Each of these three cell lines are publicly available from the National Institutes of Health (NIH) AIDS Research and Reference Reagent Program. The H9/HTLC-IIIB cell line is available under catalogue number 231, while CEM cell line is available under catalogue number 117 and the MT-2 cell line is available under the catalogue number 237. MT-2 and CEM cells were grown in RPMI 1640 medium supplemented with 10% (v/v) fetal calf serum, 100 U/ml penicillin, 100 μg/ml streptomycin and 25 mM HEPEs buffer. H9 cells were grown in the same medium except 20% fetal calf serum was used. The peptides were diluted in the medium used for MT-2 and CEM cells. Cell cultures were maintained in disposable tissue culture labware at 37° C. in a humidified atmosphere of 5% CO2 in air.
(§2) The inhibitors were dissolved in DMSO at 40 mg/ml or sterile water at 2 mg/ml, then dilutions were made in medium. The dilutions were added to micro-titer plates in 100 μl/well aliquots so that the high drug concentration for each screen was 100 μg/ml after the addition of cells to the well.
(§3) Susceptible MT-2 and CEM cells were grown and the cell population determined by a trypan blue viable cell count. The desired total number of cells were placed in a sterile, disposable 50 ml conical centrifuge tube and virus was added to give an MOI (Multiplicity of Infection) of 0.03 TCID50 /cell (Tissue Culture Infectious Dose) on MT-2 cells and approximately 0.12 TCID50 /cell on CEM cells. Fresh medium was added to adjust the cell density to 1×10^5 cells/ml, then the virus-cell suspension was incubated at 37° C. for 1 to 2 hours until plating. Uninfected controls cell were prepared in the same manner but without the addition of virus. Infected and uninfected cells were added to plates in 100 μl/well aliquots to give a starting cell number of 1×10^4 cells/well. The plates were incubated for seven days in a humidified atmosphere of 5% CO2 in air.
Reagents for colorimetric evaluation of cell viability were prepared by mixing the tetrazolium reagent, XTT, and phenazine methosulfate (PMS) to final concentrations of 200 μg/ml and 0.02 mM, respectively. […] The plates were read with the sealers in place in a Vmax Plate Reader® at 450 nm and 650 nm. The cytopathic effect (CPE) and percentage of cell viability were then calculated.

CEM cells = type: cell-based
Description: as §1, §2, §3
Reagents for colorimetric evaluation of cell viability were prepared by mixing the tetrazolium reagent, XTT, and phenazine methosulfate (PMS) to final concentrations of 200 μg/ml and 0.02 mM, respectively. Fifty microliters of the XTT-PMS solution was added to each well of the microtiter plates, then the plates were incubated in the CO2 incubator for another four hours. The lids were removed from the plates and replaced with adhesive plate sealers. The plates were read with the sealers in place in a Vmax Plate Reader® at 450 nm and 650 nm. The cytopathic effect (CPE) and percentage of cell viability were then calculated.
The activity and cytotoxicity of several other peptides were also assayed in CEM cells using the same procedure as described above. These assays also included toxicity and activity levels of both 25% and 50%.

MLV = MLV XC Plaque Reduction Assay - Virus Yield; type: cell-based, Murine Leukemia Virus
Description: (§4) About 3 to 5×10^3 SC-1 cells (available from the American Type Culture Collection, Rockville, Md. under the accession number ATCC CRL-1404) per well of a 96-well microtiter plate were seeded in minimal essential medium supplemented with 5% fetal bovine serum, penicillin (150 U/ml), Streptomycin (150 μg/ml) and polybrene (2 μg/ml), then infected with Mo-MuLV (Multiplicity of Infection=10 PFU/cell) the next day. The virus was allowed to adsorb to the cells for 1 hour, then medium containing serial dilutions of P-7, P-9 or medium alone was added to the cells. Pepstatin A ([…]-Val-Val-Statine-Ala-Statine) and AZT (3'-Azido-3'-deoxythymidine) were also added as controls. After incubation for 5 days (when cells were confluent) the SC-1 cells were UV irradiated for 10 seconds and 5 to 8×10^4 XC cells (ATCC CCL-165) per well were added. Generally, about two additional days of incubation were required to obtain full virus-induced cytopathic effect.
The assay described above was also preferred to determine the virus yield. In this experiment, the supernatents were removed from the SC-1 cells four days after infection and tested for MLV titers, using the XC-plaque assay as previously described.

Mo-MuLV = experiment: Moloney Murine Leukemia Virus Assay, CPE inhibition in SC-1/XC cells; type: cell-based; parameters: key: 4+(>90%); 3+(>60%); 2+(>40%); 1+(>20%); -(Negative)
Description: as §4

CC(=O)N[C@H](C(=O)N[C@@H](CC(C)C)[C@@H](O)CC(=O)N[C@@H](CC(C)C)C(=O)N[C@@H](Cc1ccccc1)C(N)=O)C(C)C [Ac-Val-Statine-Leu-Phe--NH2] (Ac-V[Sta]LF-NH2)
Inhibitory activity against the HIV protease (in words) (HIV-1 protease): inactive

CC(C)C[C@H](NC(=O)C[C@H](O)[C@H](CC(C)C)NC(=O)[C@@H](NC(=O)[C@H](Cc1ccccc1)NC(=O)[C@@H]1CCCN1C(=O)[C@H](Cc1ccc(N)cc1)NC(=O)[C@@H]1CCCN1)C(C)C)C(=O)N[C@@H](Cc1ccccc1)C(=O)N[C@@H](Cc1ccc(N)cc1)C(N)=O [P-1, H-Pro paF Pro Phe Val Statine Leu Phe paF NH2] (H-P[Phe(4-NH2)]PFV[Sta]LF[Phe(4-NH2)]-NH2)
MTC50 (minimum cytotoxic drug concentration that reduces cell viability to 50%) (MT-2 cells): > 100 µg/mL
MTC50 (minimum cytotoxic drug concentration that reduces cell viability to 50%) (CEM cells): > 100 µg/mL

CC(=O)N[C@@H](Cc1ccc(O)cc1)C(=O)N1CCC[C@H]1C(=O)N[C@@H](Cc1ccccc1)C(=O)N[C@H](C(=O)N[C@@H](CC(C)C)[C@@H](O)CC(=O)N[C@@H](CC(C)C)C(=O)N[C@@H](Cc1ccccc1)C(N)=O)C(C)C [P-5, Ac Tyr Pro Phe Val Statine Leu Phe NH2] (Ac-YPFV[Sta]LF-NH2)
IC25 (Table V) (CEM cells): > 100 µg/mL
TC50 (concentration that reduced cell viability by 50%) (CEM cells): > 100 µg/mL

CC(=O)N[C@@H](Cc1c[nH]c2ccccc12)C(=O)N1CCC[C@H]1C(=O)N[C@@H](Cc1ccccc1)C(=O)N[C@H](C(=O)N[C@@H](CC(C)C)[C@@H](O)CC(=O)N[C@@H](CC(C)C)C(=O)N[C@@H](Cc1ccccc1)C(N)=O)C(C)C [P-8, Ac Trp Pro Phe Val Statine Leu Phe NH2] (Ac-WPFV[Sta]LF-NH2)
IC25 (Table V) (CEM cells): 49 µg/mL (≈ 48.7 µM)
TC50 (concentration that reduced cell viability by 50%) (CEM cells): 66 µg/mL (≈ 65.6 µM)

COc1ccc(C[C@H](NC(C)=O)C(=O)N2CCC[C@H]2C(=O)N[C@@H](Cc2ccccc2)C(=O)N[C@H](C(=O)N[C@@H](CC(C)C)[C@@H](O)CC(=O)N[C@@H](CC(C)C)C(=O)N[C@@H](Cc2ccccc2)C(N)=O)C(C)C)cc1 [P-9, Ac YOM Pro Phe Val Statine Leu Phe NH2] (Ac-Y(Me)PFV[Sta]LF-NH2)
IC25 (Table V) (CEM cells): > 100 µg/mL
TC50 (concentration that reduced cell viability by 50%) (CEM cells): > 100 µg/mL

CC(=O)N[C@@H](Cc1ccccc1)C(=O)N1CCC[C@H]1C(=O)N[C@@H](Cc1ccccc1)C(=O)N[C@H](C(=O)N[C@@H](CC(C)C)[C@@H](O)CC(=O)N[C@@H](CC(C)C)C(=O)N[C@@H](Cc1ccccc1)C(N)=O)C(C)C [P-10, Ac Phe Pro Phe Val Statine Leu Phe NH2] (Ac-FPFV[Sta]LF-NH2)
IC25 (Table V) (CEM cells): 49 µg/mL (≈ 50.7 µM)
TC50 (concentration that reduced cell viability by 50%) (CEM cells): 55 µg/mL (≈ 56.9 µM)

CC(C)CC(=O)N[C@H](C(=O)N[C@H](C(=O)N[C@@H](CC(C)C)[C@@H](O)CC(=O)N[C@@H](C)C(=O)N[C@@H](CC(C)C)[C@@H](O)CC(=O)O)C(C)C)C(C)C [Pepstatin A, Isovaline-Val-Val-Statine-Ala-Statine] (Isovaleryl-VV[Sta]A[Sta]-OH)
% Inhibition (virus yield) (MLV; 25 μg/ml): 52%
Yield (MLV; 25 μg/ml): 9.0 × 10^4 PFU/ML
% Inhibition (virus yield) (MLV; 50 μg/ml): 94%
Yield (MLV; 50 μg/ml, supernatants four days after infection): 1.2 × 10^4 PFU/ML
CPE inhibition score (Mo-MuLV; 1.56 μg/ml): -
CPE inhibition score (Mo-MuLV; 3.12 μg/ml): -
CPE inhibition score (Mo-MuLV; 6.25 μg/ml): -
CPE inhibition score (Mo-MuLV; 12.5 μg/ml): -
CPE inhibition score (Mo-MuLV; 25 μg/ml): -
CPE inhibition score (Mo-MuLV; 50 μg/ml): -

H-Pro His Pro Phe His AVA Ile Phe NH2 [P-25]
Relative Inhibition of HIV-1 Protease Activity (10^-4 M) (HIV-1 protease; peptide concentration added 10^-4 M): -
Relative Inhibition of HIV-1 Protease Activity (10^-5 M) (HIV-1 protease; peptide concentration added 10^-5 M): -
Relative Inhibition of HIV-1 Protease Activity (10^-6 M) (HIV-1 protease; peptide concentration added 10^-6 M): -
